# Calls of active or inactive are those of the source. The rule behind the calls is not given here.
# Tested on: CCRIS mutagenicity, Ames/micronucleus/aberration tests
# Assay: CCRIS mutagenicity studies
# [1] = Test System: AMES SALMONELLA TYPHIMURIUM, Strain/Indicator: TA98, Metabolic Activation: NONE, Method: STANDARD PLATE
# [2] = Test System: AMES SALMONELLA TYPHIMURIUM, Strain/Indicator: TA100, Metabolic Activation: NONE, Method: STANDARD PLATE
# [3] = Test System: AMES SALMONELLA TYPHIMURIUM, Strain/Indicator: TA98, Metabolic Activation: RAT, LIVER, S-9, AROCLOR 1254, Method: STANDARD PLATE
# [4] = Test System: MOUSE LYMPHOMA, Strain/Indicator: L5178Y (TK+/TK-), Metabolic Activation: NONE, Method: SUSPENSION/PLATE
smiles,measurement,setting,value
O=S1(=O)c2cccc3ccc4c5ccccc5cc1c4c23,mutagenic call,[1],active; positive
same,mutagenic call,"Test System: AMES SALMONELLA TYPHIMURIUM, Strain/Indicator: TA98, Metabolic Activation: RAT, LIVER, S-9, AROCLOR 1254 (10%), Method: STANDARD PLATE",active; positive
same,mutagenic call,[2],active; positive
same,mutagenic call,"Test System: AMES SALMONELLA TYPHIMURIUM, Strain/Indicator: TA100, Metabolic Activation: RAT, LIVER, S-9, AROCLOR 1254 (10%), Method: STANDARD PLATE",active; positive
O=[N+]([O-])c1ccc2c(O)cc3cccc4ccc1c2c43,mutagenic call,"Test System: AMES SALMONELLA TYPHIMURIUM, Strain/Indicator: TA98(1,8-DNP6), Metabolic Activation: NONE, Method: STANDARD PLATE",active; positive
same,mutagenic call,"Test System: AMES SALMONELLA TYPHIMURIUM, Strain/Indicator: TA98(1,8-DNP6), Metabolic Activation: RAT, LIVER, S-9, AROCLOR 1254, Method: STANDARD PLATE",active; positive
same,mutagenic call,[1],active; positive
same,mutagenic call,[3],active; positive
same,mutagenic call,"Test System: AMES SALMONELLA TYPHIMURIUM, Strain/Indicator: YG1024, Metabolic Activation: NONE, Method: STANDARD PLATE",active; positive
same,mutagenic call,"Test System: AMES SALMONELLA TYPHIMURIUM, Strain/Indicator: YG1024, Metabolic Activation: RAT, LIVER, S-9, AROCLOR 1254, Method: STANDARD PLATE",active; positive
Cc1cc(C)c(N=Nc2c(O)c(S(=O)(=O)O)cc3cc(S(=O)(=O)O)ccc23)cc1C,mutagenic call,"Test System: AMES SALMONELLA TYPHIMURIUM, Strain/Indicator: TA100, Metabolic Activation: HAMSTER, LIVER, S-9, Method: PREINCUBATION (PRIVAL METHOD)",active; positive
same,mutagenic call,[4],active; positive. reevaluation of results: equivocal
same,mutagenic call,"Test System: MOUSE LYMPHOMA, Strain/Indicator: L5178Y (TK+/TK-), Metabolic Activation: RAT, LIVER, S-9, AROCLOR 1254, Method: SUSPENSION/PLATE",active; positive. reevaluation of results: equivocal
CC(C)=CC1C(C(=O)O)C1(C)C (centres undefined),mutagenic call,[1],inactive; negative
same,mutagenic call,[3],inactive; negative
same,mutagenic call,[2],inactive; negative
same,mutagenic call,"Test System: AMES SALMONELLA TYPHIMURIUM, Strain/Indicator: TA100, Metabolic Activation: RAT, LIVER, S-9, AROCLOR 1254, Method: STANDARD PLATE",inactive; negative
same,mutagenic call,"Test System: AMES SALMONELLA TYPHIMURIUM, Strain/Indicator: TA1535, Metabolic Activation: NONE, Method: STANDARD PLATE",inactive; negative
same,mutagenic call,"Test System: AMES SALMONELLA TYPHIMURIUM, Strain/Indicator: TA1535, Metabolic Activation: RAT, LIVER, S-9, AROCLOR 1254, Method: STANDARD PLATE",inactive; negative
same,mutagenic call,"Test System: AMES SALMONELLA TYPHIMURIUM, Strain/Indicator: TA1537, Metabolic Activation: NONE, Method: STANDARD PLATE",inactive; negative
same,mutagenic call,"Test System: AMES SALMONELLA TYPHIMURIUM, Strain/Indicator: TA1537, Metabolic Activation: RAT, LIVER, S-9, AROCLOR 1254, Method: STANDARD PLATE",inactive; negative
same,mutagenic call,"Test System: E. COLI, Strain/Indicator: WP2, Metabolic Activation: NONE, Method: STANDARD PLATE",inactive; negative
same,mutagenic call,"Test System: E. COLI, Strain/Indicator: WP2, Metabolic Activation: RAT, LIVER, S-9, AROCLOR 1254, Method: STANDARD PLATE",inactive; negative
C=CC,mutagenic call,[4],inactive; negative
same,mutagenic call,"Test System: MOUSE LYMPHOMA, Strain/Indicator: L5178Y (TK+/TK-), Metabolic Activation: RAT, LIVER, S-9, Method: SUSPENSION/PLATE",inactive; negative
C[N+](C)(C)CC1CO1 (centres undefined),mutagenic call,"Test System: UDS RAT HEPATOCYTES, Strain/Indicator: THY INCORP, Metabolic Activation: NONE",active; positive
COc1cccc2c1C(=O)c1c(O)c3c(c(O)c1C2=O)CC(O)(C(=O)CO)CC3OC1CC(N2CCOCC2C#N)C(O)C(C)O1 (centres undefined),mutagenic call,"Test System: AMES SALMONELLA TYPHIMURIUM, Strain/Indicator: TA100, Metabolic Activation: RAT, LIVER, S-9, AROCLOR 1254",inactive; negative
same,mutagenic call,"Test System: CHINESE HAMSTER V-79, Strain/Indicator: V-79/8-AZAGUANINE, Metabolic Activation: NONE",active; positive
same,mutagenic call,"Test System: UDS RAT HEPATOCYTES, Strain/Indicator: THY INCORP, Metabolic Activation: NONE, Method: AUTOMATIC COLONY COUNTER",active; positive

# Source: PubChem BioAssay AID1259407 (Chemical Carcinogenesis Research Information System (CCRIS), 2018)
